Assay [1] addresses Epidermal growth factor receptor (Homo sapiens, UniProt P00533). Kind of assay: Inhibition of GST-tagged human recombinant EGFR (668 to1210 residues) expressed in baculovirus using Fluorescein-Poly GT as substrate at 100 nM.
Assay [2] concerns the target Serine/threonine-protein kinase B-raf (Homo sapiens) (UniProt P15056). Put plainly: Inhibition of full length GST-tagged human recombinant BRAF expressed in baculovirus using Fluorescein-MAP2K1 as substrate at 100 nM.
The test system of a further assay is HUVEC. Kind of assay: Antiangiogenic activity in HUVEC after 72 hrs by MTT assay. The class given is functional, cell-based. The note with it: Homo sapiens.
For assay [3], the target named is Fibroblast growth factor receptor 2 (Homo sapiens) (UniProt P21802). Kind of assay: Inhibition of His-tagged human recombinant FGFR2 (403 to 822 residues) expressed in baculovirus using Fluorescein-Poly GT as substrate at 100 nM.
Sequence of Fibroblast growth factor receptor 2 (Homo sapiens) (P21802 22-821 limits assumed): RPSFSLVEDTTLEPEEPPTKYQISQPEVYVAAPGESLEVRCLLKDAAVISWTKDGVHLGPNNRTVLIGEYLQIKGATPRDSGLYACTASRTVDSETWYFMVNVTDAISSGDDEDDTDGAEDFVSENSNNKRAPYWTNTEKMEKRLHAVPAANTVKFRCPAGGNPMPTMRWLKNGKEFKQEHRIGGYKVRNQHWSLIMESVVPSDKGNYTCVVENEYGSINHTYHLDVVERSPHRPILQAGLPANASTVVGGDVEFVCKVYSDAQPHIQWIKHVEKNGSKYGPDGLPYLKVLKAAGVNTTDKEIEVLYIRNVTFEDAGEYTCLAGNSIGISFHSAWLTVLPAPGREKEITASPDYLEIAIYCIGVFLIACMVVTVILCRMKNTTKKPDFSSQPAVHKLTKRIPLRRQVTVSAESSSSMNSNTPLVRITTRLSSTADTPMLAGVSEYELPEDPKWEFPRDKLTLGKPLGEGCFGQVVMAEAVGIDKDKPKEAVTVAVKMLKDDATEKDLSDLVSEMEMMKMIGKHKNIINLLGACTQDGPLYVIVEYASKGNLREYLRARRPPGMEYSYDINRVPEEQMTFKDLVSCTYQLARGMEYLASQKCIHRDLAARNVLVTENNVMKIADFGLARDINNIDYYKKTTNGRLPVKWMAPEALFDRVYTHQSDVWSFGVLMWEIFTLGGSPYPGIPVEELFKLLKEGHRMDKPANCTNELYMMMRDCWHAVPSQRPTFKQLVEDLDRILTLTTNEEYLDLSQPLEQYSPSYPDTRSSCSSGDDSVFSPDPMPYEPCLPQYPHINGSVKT
For assay [4], the target named is Proto-oncogene tyrosine-protein kinase Src (Homo sapiens, UniProt P12931). Kind of assay: Inhibition of full length His-tagged human recombinant cSRC expressed in baculovirus using Fluorescein-Poly GT as substrate at 100 nM.
Sequence of Proto-oncogene tyrosine-protein kinase Src (P12931 2-536 limits assumed): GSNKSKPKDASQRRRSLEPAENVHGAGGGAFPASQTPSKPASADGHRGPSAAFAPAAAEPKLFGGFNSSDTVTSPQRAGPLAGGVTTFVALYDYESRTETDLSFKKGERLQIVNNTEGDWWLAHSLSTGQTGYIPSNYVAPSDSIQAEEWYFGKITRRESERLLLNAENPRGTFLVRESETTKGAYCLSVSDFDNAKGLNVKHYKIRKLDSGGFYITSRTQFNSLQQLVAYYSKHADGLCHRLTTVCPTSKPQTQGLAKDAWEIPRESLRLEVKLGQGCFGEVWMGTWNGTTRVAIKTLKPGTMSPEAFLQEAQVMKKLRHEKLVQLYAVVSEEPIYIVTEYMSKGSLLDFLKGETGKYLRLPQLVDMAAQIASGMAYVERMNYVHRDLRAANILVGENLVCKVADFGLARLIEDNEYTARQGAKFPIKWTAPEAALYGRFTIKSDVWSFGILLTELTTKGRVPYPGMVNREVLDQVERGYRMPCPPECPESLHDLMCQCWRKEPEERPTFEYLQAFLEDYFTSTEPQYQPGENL
Another assay concerns HepG2. Kind of assay: Antiproliferative activity against human HepG2 cells after 72 hrs by MTT assay. The format is functional, cell-based. To be noted: HepG2, 72 h. Background: Tetrazolium dyes change colour on reduction, which living cells bring about.
Assay [5] concerns the target Platelet-derived growth factor receptor alpha (Homo sapiens, UniProt P16234). Put plainly: Inhibition of full length GST-tagged human recombinant PDGFRalpha expressed in baculovirus using Fluorescein-Poly GT as substrate at 100 nM.
The target in assay [6] is Vascular endothelial growth factor receptor 2 (Homo sapiens) (UniProt P35968). Put plainly: Inhibition of full length His-tagged human recombinant VEGFR2 expressed in baculovirus using Fluorescein-Poly GT as substrate at 100 nM.
Sequence of Vascular endothelial growth factor receptor 2 (Homo sapiens) (P35968 whole entry): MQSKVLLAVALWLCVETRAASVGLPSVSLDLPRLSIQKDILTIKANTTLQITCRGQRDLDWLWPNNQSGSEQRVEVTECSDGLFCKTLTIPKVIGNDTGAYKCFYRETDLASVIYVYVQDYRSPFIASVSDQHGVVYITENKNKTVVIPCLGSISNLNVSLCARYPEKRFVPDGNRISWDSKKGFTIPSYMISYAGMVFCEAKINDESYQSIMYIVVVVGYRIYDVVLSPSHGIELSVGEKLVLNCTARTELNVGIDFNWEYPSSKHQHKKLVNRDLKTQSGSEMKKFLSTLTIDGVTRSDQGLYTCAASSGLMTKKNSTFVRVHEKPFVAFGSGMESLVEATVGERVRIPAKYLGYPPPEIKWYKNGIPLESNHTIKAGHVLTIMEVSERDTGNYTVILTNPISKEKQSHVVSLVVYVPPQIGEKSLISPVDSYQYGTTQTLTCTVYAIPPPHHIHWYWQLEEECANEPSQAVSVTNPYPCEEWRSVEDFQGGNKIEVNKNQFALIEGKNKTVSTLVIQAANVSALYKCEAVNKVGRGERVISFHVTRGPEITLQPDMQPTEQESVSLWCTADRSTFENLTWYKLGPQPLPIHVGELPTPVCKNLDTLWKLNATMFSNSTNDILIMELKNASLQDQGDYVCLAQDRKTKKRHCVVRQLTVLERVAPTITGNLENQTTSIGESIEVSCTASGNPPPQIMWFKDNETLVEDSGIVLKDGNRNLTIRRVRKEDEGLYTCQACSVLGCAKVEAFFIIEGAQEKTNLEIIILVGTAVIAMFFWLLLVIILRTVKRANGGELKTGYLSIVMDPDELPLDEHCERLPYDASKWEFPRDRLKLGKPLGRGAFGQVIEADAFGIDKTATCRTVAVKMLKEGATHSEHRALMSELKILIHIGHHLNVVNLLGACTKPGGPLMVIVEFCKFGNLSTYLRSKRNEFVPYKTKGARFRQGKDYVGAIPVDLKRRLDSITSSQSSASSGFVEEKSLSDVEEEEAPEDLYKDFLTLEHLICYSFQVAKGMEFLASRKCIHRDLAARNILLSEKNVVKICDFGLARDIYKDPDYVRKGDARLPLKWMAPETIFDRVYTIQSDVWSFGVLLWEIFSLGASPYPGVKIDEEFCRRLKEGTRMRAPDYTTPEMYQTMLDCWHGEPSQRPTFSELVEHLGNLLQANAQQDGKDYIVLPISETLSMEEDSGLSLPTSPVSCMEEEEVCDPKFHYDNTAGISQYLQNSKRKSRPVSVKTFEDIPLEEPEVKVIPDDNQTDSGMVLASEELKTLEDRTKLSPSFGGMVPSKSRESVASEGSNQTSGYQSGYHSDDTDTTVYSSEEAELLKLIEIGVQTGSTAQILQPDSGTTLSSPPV
In the next assay the test system is A549. Kind of assay: Antiproliferative activity against human A549 cells after 72 hrs by MTT assay. The class given is functional, cell-based. To be noted: A549, 72 h.
A further assay concerns MDA-MB-231. Kind of assay: Antiproliferative activity against human MDA-MB-231 cells after 72 hrs by MTT assay. The note with it: MDA-MB-231, 72 h. The format is functional, cell-based.
Assay [7] can be described thus: Antiproliferative activity against human PC3 cells after 72 hrs by MTT assay. The format is functional, cell-based. To be noted: PC-3, 72 h.
Assay [8] can be described thus: Antiproliferative activity against human BxPC3 cells after 72 hrs by MTT assay. The format is functional, cell-based. The note with it: BXPC-3, 72 h.
The subject of another assay is NCI-H1975. Kind of assay: Antiproliferative activity against human NCI-H1975 cells harboring EGFR L858R/T790M double mutant after 72 hrs by MTT assay. To be noted: NCI-H1975, 72 h. The class given is functional, cell-based.
Assay [9] is described as follows: Antiangiogenic activity in HRMEC after 72 hrs by MTT assay. The format is functional, Homo sapiens.
A short description of assay [10]: Antiproliferative activity against human Caki2 cells after 72 hrs by MTT assay. The class given is functional, cell-based. To be noted: CAKI-2, 72 h.
For a further assay, the system named is HT-29. Put plainly: Antiproliferative activity against human HT-29 cells after 72 hrs by MTT assay. The note with it: HT-29, 72 h. The format is functional, cell-based.

Molecules are shown by their SMILES.

One may read the inhibition as the relative decrease from the control value, in per cent. Usually EC50 stands for the concentration that produces a half-maximal response. Low values mean an effect from little substance, high ones a need for much substance.

Sequence of Serine/threonine-protein kinase B-raf (Homo sapiens) (P15056 whole entry): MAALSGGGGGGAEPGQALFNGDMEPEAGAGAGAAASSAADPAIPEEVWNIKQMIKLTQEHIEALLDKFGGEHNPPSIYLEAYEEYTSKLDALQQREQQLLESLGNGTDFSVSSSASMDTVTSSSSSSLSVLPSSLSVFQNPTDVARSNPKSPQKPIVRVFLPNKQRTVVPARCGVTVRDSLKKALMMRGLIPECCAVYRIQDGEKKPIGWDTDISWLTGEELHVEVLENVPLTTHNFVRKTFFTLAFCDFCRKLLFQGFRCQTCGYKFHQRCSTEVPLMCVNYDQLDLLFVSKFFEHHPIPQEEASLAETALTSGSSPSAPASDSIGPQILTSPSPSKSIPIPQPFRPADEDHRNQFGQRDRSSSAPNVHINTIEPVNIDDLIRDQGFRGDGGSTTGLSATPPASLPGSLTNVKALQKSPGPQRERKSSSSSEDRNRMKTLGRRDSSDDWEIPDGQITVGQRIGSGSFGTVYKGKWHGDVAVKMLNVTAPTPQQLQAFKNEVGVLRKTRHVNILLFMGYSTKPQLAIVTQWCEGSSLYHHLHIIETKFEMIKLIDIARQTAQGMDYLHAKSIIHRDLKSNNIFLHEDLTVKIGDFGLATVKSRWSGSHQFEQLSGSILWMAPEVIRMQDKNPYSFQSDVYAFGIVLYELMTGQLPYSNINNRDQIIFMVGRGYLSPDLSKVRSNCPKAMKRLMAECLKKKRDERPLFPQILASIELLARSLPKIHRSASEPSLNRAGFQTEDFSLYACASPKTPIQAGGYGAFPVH
Sequence of Epidermal growth factor receptor (P00533 whole entry, the tested form may be a part): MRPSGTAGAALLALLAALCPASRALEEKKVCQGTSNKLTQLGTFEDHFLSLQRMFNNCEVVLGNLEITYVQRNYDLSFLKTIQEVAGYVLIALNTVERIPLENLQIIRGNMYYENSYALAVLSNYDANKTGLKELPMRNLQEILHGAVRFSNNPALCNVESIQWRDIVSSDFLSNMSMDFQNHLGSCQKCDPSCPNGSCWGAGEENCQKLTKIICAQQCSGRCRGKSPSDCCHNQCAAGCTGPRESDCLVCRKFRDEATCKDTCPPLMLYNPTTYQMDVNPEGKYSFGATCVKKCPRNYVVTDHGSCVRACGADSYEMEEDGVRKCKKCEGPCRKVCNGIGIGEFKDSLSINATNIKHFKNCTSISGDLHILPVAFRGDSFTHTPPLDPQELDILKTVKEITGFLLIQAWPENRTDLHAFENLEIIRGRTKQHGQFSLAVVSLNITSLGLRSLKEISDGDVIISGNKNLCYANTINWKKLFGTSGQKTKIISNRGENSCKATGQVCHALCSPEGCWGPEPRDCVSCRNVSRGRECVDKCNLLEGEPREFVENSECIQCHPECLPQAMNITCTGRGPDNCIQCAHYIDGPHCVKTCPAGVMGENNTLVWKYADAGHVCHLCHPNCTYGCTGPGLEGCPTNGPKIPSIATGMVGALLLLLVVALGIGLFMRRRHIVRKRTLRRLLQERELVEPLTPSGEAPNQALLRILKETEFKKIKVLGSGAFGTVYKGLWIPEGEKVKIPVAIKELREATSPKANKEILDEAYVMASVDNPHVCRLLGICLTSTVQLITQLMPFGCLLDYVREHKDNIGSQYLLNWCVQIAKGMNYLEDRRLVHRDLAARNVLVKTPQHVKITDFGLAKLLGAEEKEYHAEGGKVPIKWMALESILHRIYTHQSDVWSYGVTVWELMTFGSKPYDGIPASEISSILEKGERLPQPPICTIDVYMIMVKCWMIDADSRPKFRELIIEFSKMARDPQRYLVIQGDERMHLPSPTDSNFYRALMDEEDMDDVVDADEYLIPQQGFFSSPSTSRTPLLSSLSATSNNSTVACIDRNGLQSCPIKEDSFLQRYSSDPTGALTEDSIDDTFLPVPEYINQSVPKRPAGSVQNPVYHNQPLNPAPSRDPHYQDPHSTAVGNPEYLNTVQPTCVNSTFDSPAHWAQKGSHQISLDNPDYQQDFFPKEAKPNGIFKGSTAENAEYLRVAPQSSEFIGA

For the molecule `COC(=O)c1cc2cc(NCc3cc(NC(=O)c4ccc(CN5CCN(C)CC5)cc4)ccc3C)cnc2[nH]1`, the inhibition was 81% in assay [1]; 60% in [2]; 21% in [3]; 93% in assay [4]; 85% in assay [5]; 73% in [6]. In addition, the EC50 in the assay with HUVEC and with HepG2 was more than 1000 nM each time.
Take `COC(=O)c1cc2cc(NCc3cc(NC(=O)c4cncc(C(F)(F)F)c4)ccc3C)cnc2[nH]1`: the inhibition in [1] amounted to 78%; in assay [2], 73%; in assay [3] it was 13%; in assay [4], 101%; in assay [5], 93%; in assay [6], 73%. For the same molecule, the 50% effective concentration (EC50) amounted to 390 nM with HUVEC and 963 nM in the assay with HepG2.
In the case of `C#Cc1cccc(Nc2ncnc3cc(OCCOC)c(OCCOC)cc23)c1` [ERLOTINIB], the EC50 (with A549; with MDA-MB-231; in assay [7]; in assay [8]; in the assay with NCI-H1975; in assay [9]) was more than 1000 nM in each case. Moreover, the EC50 (in assay [10]; with HT-29) was more than 1000 nM each time.
Take `CC(=O)c1cc2cc(CCc3cc(NC(=O)c4ccc(CN5CCN(C)CC5)cc4)ccc3C)cnc2[nH]1`: the inhibition in assay [1] worked out at 86%; in [2] it was 67%; in assay [3] it was 18%; in assay [4], 77%; in [5] it was 86%; in assay [6], 92%. For the same molecule, the concentration for a half-maximal effect (EC50) is 118 nM with HUVEC and more than 1000 nM in the assay with HepG2.
Regarding `CN(C)C/C=C/C(=O)Nc1cc2c(Nc3ccc(F)c(Cl)c3)ncnc2cc1O[C@H]1CCOC1` [AFATINIB], the 50% effective concentration (EC50) in the assay with MDA-MB-231 was more than 1000 nM; in assay [8], more than 1000 nM; in the assay on NCI-H1975, 116 nM.
As to `COC(=O)c1cc2cc(NCc3cc(NC(=O)c4ccc5[nH]ccc5c4)ccc3C)cnc2[nH]1`, the inhibition in [1] is 45%; in [2], 65%; in assay [3], -4%; in assay [4], 59%; in assay [5], 87%; in assay [6], 59%. Also, the 50% effective concentration (EC50) is 199 nM in the assay with HUVEC and more than 1000 nM in the assay on HepG2.
Consider `COC(=O)c1cc2cc(COc3cc(NC(=O)c4ccc(CN5CCC(N(C)C)C5)c(C(F)(F)F)c4)ccc3C)cnc2[nH]1` (centres undefined), for which the inhibition stood at 93% in assay [1]; 15% in assay [2]; 69% in assay [3]; 87% in assay [4]; 96% in assay [5]; 86% in [6]. In addition, the EC50 in the assay on HUVEC is 426 nM; in the assay on HepG2, more than 1000 nM.
As to `CNC(=O)c1cc2cc(NCc3cc(NC(=O)c4ccc(CN5CCN(C)CC5)cc4)ccc3C)cnc2[nH]1`, the inhibition in assay [1] was determined as 99%; in [2] it was 86%; in [3], 23%; in assay [4], 98%; in assay [5] it was 95%; in assay [6] it was 93%. The EC50 in the assay on HUVEC and in the assay with HepG2 was more than 1000 nM throughout.
In the case of `CC(=O)c1cc2cc(CCc3cc(NC(=O)c4ccc(CN5CCC(N(C)C)C5)c(C(F)(F)F)c4)ccc3C)cnc2[nH]1` (centres undefined), the EC50 in the assay with A549 is 293 nM; in the assay with HUVEC it was 163 nM; with HepG2 it was 248 nM; in [9] it was 304 nM; in the assay on HT-29, 303 nM. Also, the inhibition was found to be 83% in assay [1]; 60% in assay [2]; 81% in assay [3]; 97% in assay [4]; 89% in assay [5]; 99% in [6].
On to `CNC(=O)c1cc2cc(NCc3cc(NC(=O)c4ccc(CN5CCC(N(C)C)C5)c(C(F)(F)F)c4)ccc3C)cnc2[nH]1` (centres undefined), for which the 50% effective concentration (EC50) in the assay on A549 is 495 nM; with HUVEC, 83 nM; with HepG2, 179 nM; in [9], 81 nM; with HT-29 it was 227 nM. Also, the inhibition in [1] was determined as 101%; in assay [2], 93%; in assay [3], 98%; in assay [4], 99%; in assay [5], 94%; in assay [6], 87%.
Regarding `CCN(CC)CCNC(=O)c1c(C)[nH]c(/C=C2\C(=O)Nc3ccc(F)cc32)c1C` [SUNITINIB], the concentration giving a half-maximal response (EC50) (in the assay on MDA-MB-231; in [7]; in assay [8]; in the assay on NCI-H1975; in [10]) was more than 1000 nM each time.
For `COC(=O)c1cc2cc(NCc3cc(NC(=O)c4ccnc(C)c4)ccc3C)cnc2[nH]1`, the inhibition in [1] was 49%; in [2], 85%; in assay [3], -6%; in assay [4], 51%; in [5], 82%; in assay [6], 46%. Also, the results for the EC50 in the assay on HUVEC and in the assay on HepG2 were 986 nM and more than 1000 nM, respectively.
Regarding `CNC(=O)c1cc(Oc2ccc(NC(=O)Nc3ccc(Cl)c(C(F)(F)F)c3)c(F)c2)ccn1` [REGORAFENIB], the EC50 in the assay with A549 and in the assay on HT-29 was more than 1000 nM throughout.
Take `COC(=O)c1cc2cc(NC(=O)c3cc(NC(=O)c4ccc(CN5CCC(N(C)C)C5)c(C(F)(F)F)c4)ccc3C)cnc2[nH]1` (centres undefined): the inhibition was found to be 76% in assay [1]; 46% in [2]; 94% in assay [3]; 100% in assay [4]; 94% in assay [5]; 93% in assay [6]. Further, the half-maximal effective concentration (EC50) turned out to be 631 nM with HUVEC and 977 nM with HepG2.
For the molecule `CNC(=O)c1cc(Oc2ccc(NC(=O)Nc3ccc(Cl)c(C(F)(F)F)c3)cc2)ccn1` [SORAFENIB], the concentration giving a half-maximal response (EC50) was more than 1000 nM with A549; more than 1000 nM with MDA-MB-231; 718 nM in the assay on HUVEC; more than 1000 nM in assay [8]; more than 1000 nM with NCI-H1975; 302 nM with HepG2. Also, the 50% effective concentration (EC50) (in assay [9]; in assay [10]; with HT-29) was more than 1000 nM throughout.
Take `COC(=O)c1cc2cc(CCc3cc(NC(=O)c4ccc(CN5CCC(N(C)C)C5)c(C(F)(F)F)c4)ccc3C)cnc2[nH]1` (centres undefined): the inhibition came to 97% in [1]; 64% in assay [2]; 101% in [3]; 101% in [4]; 105% in assay [5]; 102% in [6]. The EC50 in the assay with HUVEC is 171 nM; with HepG2, more than 1000 nM.
In the case of `COC(=O)c1cc2cc(NCc3cc(NC(=O)c4ccc5c(c4)OCO5)ccc3C)cnc2[nH]1`, the inhibition in assay [1] worked out at 40%; in assay [2], 77%; in [3], 3%; in assay [4], 68%; in assay [5], 91%; in assay [6], 58%. In addition, the EC50 is 298 nM in the assay on HUVEC and more than 1000 nM in the assay with HepG2.
Regarding `COC(=O)c1cc2cc(NC(=O)c3cc(NC(=O)c4ccc(CN5CCN(C)CC5)cc4)ccc3C)cnc2[nH]1`, the inhibition in assay [1] was found to be 65%; in assay [2], 71%; in assay [3], 8%; in assay [4], 94%; in assay [5], 41%; in [6], 97%. Moreover, the 50% effective concentration (EC50) with HUVEC and with HepG2 was more than 1000 nM throughout.
In the case of `CC(=O)c1cc2cc(NCc3cc(NC(=O)c4ccc(CN5CCC(N(C)C)C5)c(C(F)(F)F)c4)ccc3C)cnc2[nH]1` (centres undefined), the EC50 in the assay on A549 worked out at 204 nM; in the assay with HUVEC, 97 nM; in the assay with HepG2, 275 nM; in assay [9], 179 nM; in the assay with HT-29, 150 nM. Further, the inhibition in assay [1] was determined as 94%; in assay [2], 56%; in assay [3], 58%; in [4], 91%; in assay [5], 73%; in [6] it was 71%.
For the molecule `COC(=O)c1cc2cc(NCc3cc(NC(=O)c4ccc(CN5CCC(N(C)C)C5)c(C(F)(F)F)c4)ccc3C)cnc2[nH]1` (centres undefined), the inhibition in assay [1] is 80%; in assay [2], 92%; in assay [3], 75%; in [4], 96%; in [5], 90%; in assay [6] it was 96%. In addition, the figures for the EC50 in the assay with HUVEC and in the assay with HepG2 were 689 nM and 673 nM, respectively.
`COC(=O)c1cc2cc(NCc3cc(NC(=O)c4cncc(C)c4)ccc3C)cnc2[nH]1`: the inhibition in assay [1] was 72%; in assay [2], 95%; in assay [3] it was 19%; in [4], 89%; in assay [5], 93%; in [6], 89%. The EC50 in the assay with HUVEC is more than 1000 nM; in the assay on HepG2, 510 nM.
